Test results as given in patent US20210261857A1, “PARTICLE COMPRISING AT LEAST ONE FERRIMAGNETIC OR FERROMAGNETIC IRON OXIDE NANOPARTICLE ASSOCIATED WITH AT LEAST ONE COMPOUND FOR MEDICAL OR COSMETIC USE” (NANOBACTERIE, priority 2015, published 2021).

Legend:
Format in all cases: physicochemical
[1] = Luminescence of heated rhodamine B solution and MCR400 suspension (temperature probe); settings: temperature increased from 20° C. to 80° C., 5 μM, pH 7, heated 30 minutes, excited at 405 nm
Experimental: A solution of rhodamine B of concentration 5 μM and pH 7 contained in a volume of 800 μL is excited at 405 nm and heated at different temperatures for 30 minutes using a dry heating bath. When the temperature of this solution increases from 20° C. to 80° C., the wavelength corresponding to the maximum luminescence of rhodamine B remains relatively unchanged while the maximum luminescence intensity of rhodamine B decreases strongly by 73% in agreement with previously published results (Journal of Luminescence, Vol. 27, p. 455 (1982)). A suspension of MCR400 at a concentration of 250 μg/mL in iron oxide and pH 7 contained in a volume of 800 μl is excited at 405 nm and heated at different temperatures for 30 minutes using a dry hot-water heating bath. MCR400 excited at 405 nm produce maximum luminescence intensity at 569 nm. The behavior of the MCR400 is different from that of rhodamine B. Indeed, between 20° C. and 80° C., the maximum of the luminescence peak is observed at 569 nm and the luminescence intensity of the MCR400 increases sharply by 66%. The luminescence intensity of rhodamine B would initially be quenched when rhodamine B is associated with magnetosomes and would increase with the dissociation of rhodamine B from magnetosomes under the effect of a temperature increase.

[2] = Luminescence as a function of pH (pH 2 to 12), suspension, supernate and rhodamine B alone; settings: 125 μM, excited at 550 nm
Experimental: A suspension of MCR400 at 400 μg/mL in iron oxide and a 125 μM solution of rhodamine B were mixed with solutions of hydrochloric acid or with solutions of sodium hydroxide at concentrations ranging from 0.1 to 12 M to adjust the pH to values between 2 and 12. The samples containing the MCR400 suspensions thus treated are then placed against a magnet of 0.6 T for 12 hours at 4° C. and the supernate of the treated MCR400 suspensions is removed. The maximum luminescence intensity of the supernate of the MCR400 suspension, excited at 550 nm, decreases from 140 a.u. at pH 2 down to 20 a.u. at pH 12. On the other hand, the maximum luminescence intensity of rhodamine B alone, excited at 550 nm, increases from 440 a.u. up to 580 a.u. […] In contrast, for 2<pH<4, the emission wavelengths of rhodamine B alone, MCR400 and the supernate of MCR400, are similar, lying between 580 nm and 584 nm. These behaviors could be explained by the association of rhodamine B with magnetosomes for pH>4 and the dissociation of rhodamine B from magnetosomes for pH<4.

[3] = Luminescence after irradiation with a faxitron irradiator (irradiation probe); settings: 0 to 1350 Gy, 125 μM rhodamine B, pH 7, 25° C., excited at 550 nm, measured at 578 nm
Experimental: Three suspensions are maintained at pH 7 and at a temperature of 25° C., containing either 400 μg/mL in iron oxide of MCR400, 125 μM of rhodamine B, or 400 μg/mL in iron oxide of MC mixed with 125 μM of rhodamine B. These suspensions are irradiated with a faxitron irradiator dosimeter (160 kV, 6.3 mA without filter, 67.5 Gy/min). The irradiation doses are between 0 and 1350 Gy. […] In contrast, when the MCR400 suspension is irradiated, the luminescence of the supernate of this suspension, excited at 550 nm and measured at 576 nm, increases sharply from 250 a.u. in the absence of irradiation to 600-950 a.u. in the presence of an irradiation larger than 250 Gy.

[4] = Fluorescence lifetime by the frequency method; settings: excitation 445 nm, MCR400 5 mg/mL in iron oxide, rhodamine B 5 μM
Experimental: Life time experiments were carried out using the frequency method. The set-up uses a modulated laser diode as excitation source, a confocal fluorescence spectroscope, a control unit for intensifying images and a camera, frequency generators and a spectrograph controller. The modulation frequency has been varied between 30 and 180 MHz. The excitation wavelength is 445 nm. The laser light is modulated by a radio frequency signal. An interference filter suppresses parasitic fluorescence from the laser diode and a high pass filter is placed in the detection path to decrease scattering. A volume of 1 mL of a suspension of MCR400 at 5 mg/mL in iron oxide and rhodamine B at a concentration of 5 μM was placed in a dry heating bath for 5 minutes to heat the suspensions at 25° C. and at 45° C. 10 μl of a suspension of MCR400 at 5 mg/ml in iron oxide and rhodamine B at a concentration of 5 μM were deposited on a slide and then placed in front of an objective ×40 to measure the fluorescence lifetime of each suspension.

[5] = Luminescence of heated DiI and BNF-DiI suspensions and supernate; settings: excited at 530 nm
Experimental: A suspension of DiI of concentration 5.4 μM and pH 7 is heated at various temperatures lying between 20 and 90° C. for 30 minutes using a dry heating bath. […] When a suspension containing BNF-DiI mixed in water at a concentration of 80 μg/mL in iron oxide is heated at temperatures lying between 20 and 90° C. using a dry heating bath, the behavior is different from that observed with DiI alone.
In order to determine if the luminescence variation of the BNF-DiI is due to the dissociation of DiI from the BNF, the maximum intensity of luminescence of the supernate of BNF-DiI and DiI alone, excited at 530 nm, were measured for suspensions containing BNF-DiI or DiI alone heated at different temperatures between 20 and 90° C. for a period of 0 to 30 minutes.

In the case of `CCN(CC)c1ccc2c(-c3ccccc3C(=O)O)c3ccc(=[N+](CC)CC)cc-3oc2c1.[Cl-]` [rhodamine B], the “decrease of maximum luminescence intensity” value [1] is reported as 73%, the “maximum luminescence intensity of the solution” value ([2]; end of the pH increase (pH range 2 to 12)) is reported as 580 a.u and the “maximum luminescence intensity of the solution” value ([2]; start of the pH increase (pH range 2 to 12)) is reported as 440 a.u. For the same molecule, the “luminescence on irradiation (solution, or supernate of the mixture)” value [3] was “do not vary or decrease”, the fluorescence lifetime ([4]; 25° C.) was 1.6 ns and the fluorescence lifetime ([4]; 45° C.) was 1.3 ns.
With `CCCCCCCCCCCCCCCCCCN1C(=CC=CC2=[N+](CCCCCCCCCCCCCCCCCC)c3ccccc3C2(C)C)C(C)(C)c2ccccc21.[O-][Cl+3]([O-])([O-])[O-]` [DiI, 1,1′-Dioctadecyl-3,3,3′,3′-tetramethyl-indocarbocyanine perchlorate] the “maximum luminescence intensity as a function of heating temperature” value ([5]; heated 30 minutes, DiI 5.4 μM pH 7, BNF-DiI 80 μg/mL in iron oxide) was “increases between 20 and 60 °C and then decreases between 60 and 100 °C” and the “luminescence intensity of the substance alone on heating” value ([5]; heated between 20 and 90° C. for 0 to 30 minutes) was “does not significantly decrease”.
